Measurements from patent publication US12195427B2, “MASP-2 inhibitors and methods of use” (priority 2018, dated 2025).
Structures can show the parent of a compound that is named as a salt.

Molecular target: MASP-2 CCP2-SP (Homo sapiens (Human), UniProt O00187)
Assay: MASP-2 co-crystallization, X-ray crystallography and structure analysis (H-bonds, van der Waals contacts);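 on Ligand-pharmacophore element distance, pharmacophore element C2: distance from averaged pharmacophore element to bound ligand; missing value means element absent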;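 on Ligand-pharmacophore element distance, pharmacophore element C3: distance from averaged pharmacophore element to bound ligand; missing value means element absent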;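 on Ligand-pharmacophore element distance, pharmacophore element C4: distance from averaged pharmacophore element to bound ligand; missing value means element absent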;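 on Ligand-pharmacophore element distance, pharmacophore element C5: distance from averaged pharmacophore element to bound ligand; missing value means element absent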
Set-up: van der Waals contact distance, MASP-2 HIS 483 atom CD2 / van der Waals contact distance, MASP-2 HIS 483 atom NE2 / van der Waals contact distance, SER 654 C to compound atom / van der Waals contact distance, SER 654 O to compound atom / van der Waals contact distance, TRP 655 C to compound atom / van der Waals contact distance, MASP-2 GLY 528 atom CA / van der Waals contact distance TRP 655 atom CZ3 / van der Waals contact distance TRP 655 atom N / van der Waals contact distance TRP 655 atom CE3 / van der Waals contact distance GLY 656 atom C / van der Waals contact distance GLY 656 atom CA / van der Waals contact distance GLY 656 atom O / van der Waals contact distance, MASP-2 TYR 607 atom CD1 / van der Waals contact distance, MASP-2 PRO 606 atom O / d(C3,CA1) / d(CA1,N1)2 / d(H4,O1) / d(H4,O2) / d(O1,O2) / d(CA1,O2) / d(CA6,O1) / d(CA6,O2) / d(CA1,C5) / d(O2,H3) / d(N2,C2) / d(CA5,N2) / d(N2,C4) / d(N2,C6) / d(N2,CA3) / d(N2,O3) / d(O4,H2): unit not given beside the values
Settings: for Ligand-pharmacophore element distance, pharmacophore element C2 / Ligand-pharmacophore element distance, pharmacophore element C3 / Ligand-pharmacophore element distance, pharmacophore element C4 / Ligand-pharmacophore element distance, pharmacophore element C5 / Ligand-pharmacophore element distance, pharmacophore element C6 / Ligand-pharmacophore element distance, pharmacophore element C7 / Ligand-pharmacophore element distance, pharmacophore element CA1 / Ligand-pharmacophore element distance, pharmacophore element CA2 / Ligand-pharmacophore element distance, pharmacophore element CA3 / Ligand-pharmacophore element distance, pharmacophore element CA4 / Ligand-pharmacophore element distance, pharmacophore element CA5 / Ligand-pharmacophore element distance, pharmacophore element CA6: Table A4-1
Excerpt: This example illustrates the preparation of recombinant MASP-2 protein, based on UniProt O00187, human mannan-binding lectin serine protease 2. Expression constructs for human MASP-2 CCP2-SP and CCP2-SP-6HIS were generated for recombinant expression in E. coli cells.
Typically, crystallization hits were obtained by screening against […] 96-well crystallization reagent kits (GRAS6, GRAS2, Hampton Research; MORPHEUS, Molecular Dimensions; Wizard 1&2 Cryo, Rigaku Reagents) and crystal growth was inspected by optical microscopy. Crystals were used directly or further optimized for X-ray diffraction. Crystals were captured with cryogenic loops and dipped into liquid nitrogen directly or cryoprotected with a 20% glycerol in crystallization formulation before flash-cooling in liquid nitrogen.
Thereafter crystals are transferred once or twice for soaking within the crystallization solution containing the MASP-2 inhibitor.
Crystals were diffracted with synchrotron X-rays of […] and X-ray diffraction datasets were collected at beamlines SSRL BL9-2, BL14-1, BL12-2 as well as ALS sector 5 using Dectris Pilatus and Eiger detectors. Structures were determined by molecular replacement using portions of the structure 1Q3X as search models and partially refined with Buster 2.10.2 or Refmac 5.8. […] When multiple ligand poses were observed, for instance arising from multiple molecules in the asymmetric unit or refined dual poses within the same molecule, only one pose was selected and analyzed.
LigPlot+ calls these ‘nonbonded contacts’ or ‘hydrophobic contacts’. Despite the name, there are atom pairings that include possible H-bonds. Thus, in some instances, the Table A2 also contains H-bond interactions.

[1] = Table A5-1 pharmacophore: distance between elements, S2/S1 region
[2] = Table A5-2 pharmacophore distance, S3/S4 region
[3] = Table A7-1, between pharmacophore elements of the bound compound
[4] = Table A7-2, between pharmacophore elements of the bound compound
[5] = Table A8-6, nearest protein atom in cell to the left

Chain of MASP-2 CCP2-SP (O00187 445-686): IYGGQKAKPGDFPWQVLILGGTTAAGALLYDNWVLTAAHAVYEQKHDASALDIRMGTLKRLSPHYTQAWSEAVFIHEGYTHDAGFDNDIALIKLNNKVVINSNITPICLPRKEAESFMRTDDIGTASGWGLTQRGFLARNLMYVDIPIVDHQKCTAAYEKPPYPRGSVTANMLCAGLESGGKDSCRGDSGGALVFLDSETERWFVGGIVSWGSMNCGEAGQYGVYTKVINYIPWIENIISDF
Chain of MASP-2 CCP2-SP (O00187 364-432 partner): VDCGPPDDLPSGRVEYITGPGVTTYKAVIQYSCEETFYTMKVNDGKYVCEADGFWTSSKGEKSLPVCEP

Cc1cccc([C@H]2CN[C@@H](C(=O)N[C@@H](C)C(=O)NCc3ccc(N)nc3C)C2)c1 [compound 1257, (2R,4S)—N—((S)-1-(((6-Amino-2-methylpyridin-3-yl)methyl)amino)-1-oxopropan-2-yl)-4-(m-tolyl)pyrrolidine-2-carboxamide Dihydrochloride]
H-bond distance to MASP-2 GLY 656 atom O (Table A1 (H-Bonds), GLY 656 O): 2.82
H-bond distance to MASP-2 SER 628 atom O (Table A1 (H-Bonds), SER 628 O): 3.12
H-bond distance to MASP-2 SER 654 atom O (Table A1 (H-Bonds), SER 654 O): 3.02
H-bond distance to MASP-2 SER 657 atom O (Table A1 (H-Bonds), SER 657 O): 2.86
van der Waals contact distance, MASP-2 HIS 483 atom CD2 (Table A2-1): 3.7
van der Waals contact distance, MASP-2 HIS 483 atom NE2 (Table A2-1): 3.72
van der Waals contact distance, MASP-2 PHE 529 atom CD1 (Table A2-3): 3.89
van der Waals contact distance, MASP-2 PRO 606 atom O (Table A2-4): 3.38
van der Waals contact distance, MASP-2 amino acid atom to compound atom (Table A2-5: TYR 607 (CE1, CE2, OH), PRO 608 (CD, CG), SER 611 (CA)): 3.8
van der Waals contact distance, MASP-2 amino acid atom to compound atom (Table A2-9, ARG 630, AA atoms CG, CZ): 3.53
van der Waals contact distance, VAL 653 CG1 to compound atom (Table A2-11): 3.36
van der Waals contact distance, SER 654 O to compound atom (Table A2-12): 3.73
van der Waals contact distance, TRP 655 CA to compound atom (Table A2-12): 3.57
van der Waals contact distance TRP 655 atom CE3 (Table A2-13, MASP-2 TRP 655 CE3, compound atom in line below): 3.87
van der Waals contact distance TRP 655 atom CZ3 (Table A2-13, MASP-2 TRP 655 CZ3): 3.77
van der Waals contact distance, MASP-2 amino acid atom to compound atom (Table A2 section before Table A2-8): 3.86
Ligand-pharmacophore element distance, pharmacophore element C2: 0
Ligand-pharmacophore element distance, pharmacophore element C3: 0.1
Ligand-pharmacophore element distance, pharmacophore element C4: 0
Ligand-pharmacophore element distance, pharmacophore element C5: 0
Ligand-pharmacophore element distance, pharmacophore element C6: 0.53
Ligand-pharmacophore element distance, pharmacophore element C7: 0
Ligand-pharmacophore element distance, pharmacophore element CA1: 0.65
Ligand-pharmacophore element distance, pharmacophore element CA2: 0
Ligand-pharmacophore element distance, pharmacophore element CA3: 0
Ligand-pharmacophore element distance, pharmacophore element CA4: 0
Ligand-pharmacophore element distance, pharmacophore element CA5: 1.2
Ligand-pharmacophore element distance, pharmacophore element CA6: 0
d(C3,CA1) [1]: 2.87
d(CA1,N1)2 [1]: 1.35
d(CA1,O1) [1]: 4.45
d(CA1,O2) [1]: 4.03
d(H4,O1) [1]: 4.43
d(H4,O2) [1]: 3.84
d(O1,O2) [1]: 3.61
d(CA5,N2) [2]: 5.09
d(N2,C6) [2]: 6.64
d(O2,H3) [2]: 2.18
d(O2,N2) [2]: 2.71
a(C3, CA1, O1) (Table A6-1 pharmacophore angle): 150.46
a(CA1, O1, O2) (Table A6-1 pharmacophore angle): 109.00
a(O1, O2, H4) (Table A6-1 pharmacophore angle): 128.83
a(N1, CA1, O1) b) (Table A6-1 pharmacophore angle, Methyl-amino-pyridine compounds): 174.64
a(O1, O2, H3) (Table A6-2 pharmacophore angle): 132.63
a(O1, O2, N2) (Table A6-2 pharmacophore angle): 141.45
a(O2, N2, C6) (Table A6-2 pharmacophore angle): 105.30
Pharmacophore torsion angle a(C3, CA1, O1, H4) [3]: 30.77
Pharmacophore torsion angle a(H4, O1, O2, H3) [3]: 108.60
Pharmacophore torsion angle a(H4, O1, O2, N2) [3]: 132.94
Pharmacophore torsion angle a(N1, CA1, O1, H4) [3]: 11.94
Pharmacophore torsion angle a(O1, H4, O2, CA1) [3]: −83.51
Pharmacophore torsion angle a(O1, O2, N2, C6) [4]: 146.13
Pharmacophore torsion angle a(O1, O2, N2, CA5) [4]: 134.25

CC(=O)Nc1ccc(CCNC(CCc2ccccc2)C(=O)NC(C)C(=O)NCc2ccc(C(=N)N)cc2)cc1.Cl.Cl (stereo not drawn) [1345_1]
Ligand-pharmacophore element distance, pharmacophore element C2: 0
Ligand-pharmacophore element distance, pharmacophore element C3: 0
Ligand-pharmacophore element distance, pharmacophore element C4: 0
Ligand-pharmacophore element distance, pharmacophore element C5: 0
Ligand-pharmacophore element distance, pharmacophore element C6: 0
Ligand-pharmacophore element distance, pharmacophore element C7: 0
Ligand-pharmacophore element distance, pharmacophore element CA1: 0.51
Ligand-pharmacophore element distance, pharmacophore element CA2: 1.2
Ligand-pharmacophore element distance, pharmacophore element CA3: 1.44
Ligand-pharmacophore element distance, pharmacophore element CA4: 0
Ligand-pharmacophore element distance, pharmacophore element CA5: 0
Ligand-pharmacophore element distance, pharmacophore element CA6: 0
d(CA1,O1) [1]: 4.52
d(CA1,O2) [1]: 4.49
d(H4,O1) [1]: 4.08
d(H4,O2) [1]: 3.57
d(O1,O2) [1]: 3.48
d(N2,CA2) [2]: 6.14
d(N2,CA3) [2]: 5.17
d(N2,O3) [2]: 8.75
d(O2,H3) [2]: 5.98
d(O2,N2) [2]: 2.90
a(CA1, O1, O2) (Table A6-1 pharmacophore angle): 112.39
a(O1, O2, H4) (Table A6-1 pharmacophore angle): 126.38
a(O1, O2, H3) (Table A6-2 pharmacophore angle): 149.79
a(O1, O2, N2) (Table A6-2 pharmacophore angle): 134.33
a(O2, N2, CA2) (Table A6-2 pharmacophore angle): 153.15
a(O2, N2, CA3) (Table A6-2 pharmacophore angle): 153.91
a(O2, N2, O3) (Table A6-2 pharmacophore angle): 163.54
Pharmacophore torsion angle a(H4, O1, O2, H3) [3]: 39.71
Pharmacophore torsion angle a(H4, O1, O2, N2) [3]: 114.36
Pharmacophore torsion angle a(O1, H4, O2, CA1) [3]: −62.84
Pharmacophore torsion angle a(O1, O2, N2, CA2) [4]: 138.94
Pharmacophore torsion angle a(O1, O2, N2, CA3) [4]: −27.29
Pharmacophore torsion angle a(O1, O2, N2, O3) [4]: −11.99

C[C@H](NC(=O)[C@H](N)C1Cc2ccccc2C1)C(=O)NCc1ccc2c(N)nccc2c1.Cl.Cl [1088_A]
Ligand-pharmacophore element distance, pharmacophore element C2: 1.75
Ligand-pharmacophore element distance, pharmacophore element C3: 0
Ligand-pharmacophore element distance, pharmacophore element C4: 0
Ligand-pharmacophore element distance, pharmacophore element C5: 0
Ligand-pharmacophore element distance, pharmacophore element C6: 0
Ligand-pharmacophore element distance, pharmacophore element C7: 0
Ligand-pharmacophore element distance, pharmacophore element CA1: 0.4
Ligand-pharmacophore element distance, pharmacophore element CA2: 0
Ligand-pharmacophore element distance, pharmacophore element CA3: 0
Ligand-pharmacophore element distance, pharmacophore element CA4: 0
Ligand-pharmacophore element distance, pharmacophore element CA5: 0.39
Ligand-pharmacophore element distance, pharmacophore element CA6: 0
d(CA1,O1) [1]: 5.33
d(CA1,O2) [1]: 4.61
d(H4,O1) [1]: 6.97
d(H4,O2) [1]: 5.89
d(O1,O2) [1]: 3.49
d(CA5,N2) [2]: 5.30
d(N2,C2) [2]: 3.41
d(O2,H3) [2]: 3.72
d(O2,N2) [2]: 2.73
a(CA1, O1, O2) (Table A6-1 pharmacophore angle): 99.08
a(O1, O2, H4) (Table A6-1 pharmacophore angle): 149.95
a(O1, O2, H3) (Table A6-2 pharmacophore angle): 144.04
a(O1, O2, N2) (Table A6-2 pharmacophore angle): 141.09
a(O2, N2, C2) (Table A6-2 pharmacophore angle): 141.58
Pharmacophore torsion angle a(H4, O1, O2, H3) [3]: 49.33
Pharmacophore torsion angle a(H4, O1, O2, N2) [3]: 120.82
Pharmacophore torsion angle a(O1, H4, O2, CA1) [3]: −54.60
Pharmacophore torsion angle a(O1, O2, N2, C2) [3]: 103.40
Pharmacophore torsion angle a(O1, O2, N2, CA5) [4]: 116.27
Pharmacophore protein distance to MET_658 (first MET_658 column) (Table A8-6, 6th residue column, nearest protein atom in cell to the left): 3.04
Pharmacophore protein distance to MET_658 (second MET_658 column) (Table A8-6, 9th residue column, nearest protein atom in cell to the left): 3.12
Pharmacophore protein distance to GLY_528 [5]: 3.66
Pharmacophore protein distance to PHE_529 [5]: 2.75
Pharmacophore protein distance to PRO_608 [5]: 3.74
Pharmacophore protein distance to SER_611 [5]: 2.71
Pharmacophore protein distance to TRP_655 (Table A8-6, pharmacophore elements C6, CA3, O3, H1, nearest protein atom in cell to the left): 3.75
